{"source": "patent US20050136444A1", "about": "(priority 2003, published 2005)", "test_system": "Hot Plate Test", "assay": "52° C. hot plate test after systemic administration", "type": "in vivo, rat", "conditions": "rats, 10 mg/kg i.p., vs vehicle", "protocol": "Rats were injected with either vehicle or 10 mg/kg Compound 2616 (i.p.) and then assessed for possible changes in sensitivity to a noxious thermal stimulus using the 52° C. hot plate test.", "note": "Structures can show the parent of a compound that is named as a salt."}
{"compound": "NC(N)=NN=Cc1ccc(-c2ccccc2C(F)(F)F)o1", "note": "(racemic) [Compound 2616, 1-[(5-(2-(Trifluoromethyl)phenyl)-furan-2-yl)-methyleneamino]guanidine Hydrochloride]", "values": [{"measurement": "hot plate latency (thermal hyperalgesia)", "result": "produced a significant reduction in the hot plate latency"}]}
